Where a SMILES comes first, the peptide text is derived from it.

The values that follow come from US20020156236A1, “Binding sites for phosphotyrosine binding domains” (priority 1995, published 2002).

This test has as its target T1, PTB domain/c-erbB2 binding (GST-PTB domain of SHC; c-erbB2 from SKBR3 lysate) (Homo sapiens, UniProt P29353).
T1 construct: GST-PTB domain fusion proteins were expressed from recombinant baculovirus in sf9 cells; made in house; host or cells: Sf9 cells (recombinant baculovirus) for GST-PTB; c-erbB2 endogenous in SKBR3 cell lysate
T1 sequence (P29353 156-341): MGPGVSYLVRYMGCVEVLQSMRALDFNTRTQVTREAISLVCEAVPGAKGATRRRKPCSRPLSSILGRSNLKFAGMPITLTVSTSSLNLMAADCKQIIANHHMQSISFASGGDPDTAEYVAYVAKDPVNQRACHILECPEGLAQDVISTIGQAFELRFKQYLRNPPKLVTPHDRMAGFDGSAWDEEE
Kind of test: biochemical. Conditions: Inhibition (relative inhibition scale of IC50).

Broadly, the IC50 is the concentration that gives 50% inhibition. Lower therefore signals higher potency. With `CC(C)C[C@H](NC(=O)[C@H](CC(N)=O)NC(=O)[C@H](CC(=O)O)NC(=O)[C@H](C)NC(=O)[C@H](C)NC(=O)[C@@H]1CCCN1C(=O)[C@H](CO)NC(=O)[C@H](Cc1ccccc1)NC(=O)[C@H](C)NC(=O)[C@@H]1CCCN1)C(=O)N[C@@H](Cc1ccc(O)cc1)C(=O)N[C@@H](Cc1ccc(OP(=O)(O)O)cc1)C(=O)N[C@@H](Cc1c[nH]c2ccccc12)C(=O)N[C@@H](CC(=O)O)C(=O)N[C@@H](CCC(N)=O)C(=O)N[C@@H](CC(N)=O)C(=O)N[C@@H](CO)C(=O)N[C@@H](CO)C(=O)N[C@@H](CCC(=O)O)C(=O)N[C@@H](CCC(N)=O)C(=O)NCC(=O)O` [PAFSPAADNLY (pY) WDQNSSEQG, PAFSPAADNLY(pY)WDQNSSEQG] (HELM PEPTIDE1{P.A.F.S.P.A.A.D.N.L.Y.[O=C([C@H](Cc1ccc(OP(=O)(O)O)cc1)N[*:1])[*:2]].W.D.Q.N.S.S.E.Q.G}$$$$V2.0), the IC50 was 0.5 to 5 µM.

As for `CC(C)C[C@H](NC(=O)[C@H](CC(N)=O)NC(=O)[C@H](C)NC(=O)[C@H](Cc1ccccc1)NC(=O)[C@H](C)NC(=O)[C@@H]1CCCN1C(=O)[C@H](CO)NC(=O)[C@H](Cc1ccccc1)NC(=O)[C@H](C)NC(=O)[C@@H]1CCCN1)C(=O)N[C@@H](Cc1ccc(O)cc1)C(=O)N[C@@H](Cc1ccc(OP(=O)(O)O)cc1)C(=O)N[C@@H](Cc1c[nH]c2ccccc12)C(=O)N[C@@H](CC(=O)O)C(=O)N[C@@H](CCC(N)=O)C(=O)N[C@@H](CC(N)=O)C(=O)N[C@@H](CO)C(=O)N[C@@H](CO)C(=O)N[C@@H](CCC(=O)O)C(=O)N[C@@H](CCC(N)=O)C(=O)NCC(=O)O` [PAFSPAFANLY (pY) WDQNSSEQG, PAFSPAFANLY(pY)WDQNSSEQG] (HELM PEPTIDE1{P.A.F.S.P.A.F.A.N.L.Y.[O=C([C@H](Cc1ccc(OP(=O)(O)O)cc1)N[*:1])[*:2]].W.D.Q.N.S.S.E.Q.G}$$$$V2.0), the IC50 was 5 to 50 µM.

The molecule `CC(C)C[C@H](NC(=O)[C@H](C)NC(=O)[C@H](CC(=O)O)NC(=O)[C@H](Cc1ccccc1)NC(=O)[C@H](C)NC(=O)[C@@H]1CCCN1C(=O)[C@H](CO)NC(=O)[C@H](Cc1ccccc1)NC(=O)[C@H](C)NC(=O)[C@@H]1CCCN1)C(=O)N[C@@H](Cc1ccc(O)cc1)C(=O)N[C@@H](Cc1ccc(OP(=O)(O)O)cc1)C(=O)N[C@@H](Cc1c[nH]c2ccccc12)C(=O)N[C@@H](CC(=O)O)C(=O)N[C@@H](CCC(N)=O)C(=O)N[C@@H](CC(N)=O)C(=O)N[C@@H](CO)C(=O)N[C@@H](CO)C(=O)N[C@@H](CCC(=O)O)C(=O)N[C@@H](CCC(N)=O)C(=O)NCC(=O)O` [PAFSPAFDALY (pY) WDQNSSEQG] (HELM PEPTIDE1{P.A.F.S.P.A.F.D.A.L.Y.[O=C([C@H](Cc1ccc(OP(=O)(O)O)cc1)N[*:1])[*:2]].W.D.Q.N.S.S.E.Q.G}$$$$V2.0) gave an IC50 of over 50 µM.

For the molecule `CC(C)C[C@H](NC(=O)[C@H](CC(=O)O)NC(=O)[C@H](CC(=O)O)NC(=O)[C@H](Cc1ccccc1)NC(=O)[C@H](C)NC(=O)[C@@H]1CCCN1C(=O)[C@H](CO)NC(=O)[C@H](Cc1ccccc1)NC(=O)[C@H](C)NC(=O)[C@@H]1CCCN1)C(=O)N[C@@H](Cc1ccc(O)cc1)C(=O)N[C@@H](Cc1ccc(OP(=O)(O)O)cc1)C(=O)N[C@@H](Cc1c[nH]c2ccccc12)C(=O)N[C@@H](CC(=O)O)C(=O)N[C@@H](CCC(N)=O)C(=O)N[C@@H](CC(N)=O)C(=O)N[C@@H](CO)C(=O)N[C@@H](CO)C(=O)N[C@@H](CCC(=O)O)C(=O)N[C@@H](CCC(N)=O)C(=O)NCC(=O)O` [PAFSPAFDDLY (pY) WDQNSSEQG] (HELM PEPTIDE1{P.A.F.S.P.A.F.D.D.L.Y.[O=C([C@H](Cc1ccc(OP(=O)(O)O)cc1)N[*:1])[*:2]].W.D.Q.N.S.S.E.Q.G}$$$$V2.0), the IC50 is over 50 µM.

In turn, `C[C@H](NC(=O)[C@@H]1CCCN1)C(=O)N[C@@H](Cc1ccccc1)C(=O)N[C@@H](CO)C(=O)N1CCC[C@H]1C(=O)N[C@@H](C)C(=O)N[C@@H](Cc1ccccc1)C(=O)N[C@@H](CC(=O)O)C(=O)N[C@@H](CC(N)=O)C(=O)N[C@@H](C)C(=O)N[C@@H](Cc1ccc(O)cc1)C(=O)N[C@@H](Cc1ccc(OP(=O)(O)O)cc1)C(=O)N[C@@H](Cc1c[nH]c2ccccc12)C(=O)N[C@@H](CC(=O)O)C(=O)N[C@@H](CCC(N)=O)C(=O)N[C@@H](CC(N)=O)C(=O)N[C@@H](CO)C(=O)N[C@@H](CO)C(=O)N[C@@H](CCC(=O)O)C(=O)N[C@@H](CCC(N)=O)C(=O)NCC(=O)O` [PAFSPAFDNAY (pY) WDQNSSEQG, PAFSPAFDNAY(pY)WDQNSSEQG] (HELM PEPTIDE1{P.A.F.S.P.A.F.D.N.A.Y.[O=C([C@H](Cc1ccc(OP(=O)(O)O)cc1)N[*:1])[*:2]].W.D.Q.N.S.S.E.Q.G}$$$$V2.0) came in with an IC50 of 0.5 to 5 µM.

Take `CC(C)C[C@H](NC(=O)[C@H](CC(N)=O)NC(=O)[C@H](CC(=O)O)NC(=O)[C@H](Cc1ccccc1)NC(=O)[C@H](C)NC(=O)[C@@H]1CCCN1C(=O)[C@H](CO)NC(=O)[C@H](Cc1ccccc1)NC(=O)[C@H](C)NC(=O)[C@@H]1CCCN1)C(=O)N[C@@H](C)C(=O)N[C@@H](Cc1ccc(O)cc1)C(=O)N[C@@H](Cc1ccc(OP(=O)(O)O)cc1)C(=O)N[C@@H](Cc1c[nH]c2ccccc12)C(=O)N[C@@H](CC(=O)O)C(=O)N[C@@H](CCC(N)=O)C(=O)N[C@@H](CC(N)=O)C(=O)N[C@@H](CO)C(=O)N[C@@H](CO)C(=O)N[C@@H](CCC(=O)O)C(=O)N[C@@H](CCC(N)=O)C(=O)NCC(=O)O` [PAFSPAFDNLAY (pY) WDQNSSEQG] (HELM PEPTIDE1{P.A.F.S.P.A.F.D.N.L.A.Y.[O=C([C@H](Cc1ccc(OP(=O)(O)O)cc1)N[*:1])[*:2]].W.D.Q.N.S.S.E.Q.G}$$$$V2.0): the IC50 was 0.5 to 5 µM.

In turn, `CC(C)C[C@H](NC(=O)[C@H](CC(N)=O)NC(=O)[C@H](CC(=O)O)NC(=O)[C@H](Cc1ccccc1)NC(=O)[C@H](C)NC(=O)[C@@H]1CCCN1C(=O)[C@H](CO)NC(=O)[C@H](Cc1ccccc1)NC(=O)[C@H](C)NC(=O)[C@@H]1CCCN1)C(=O)N[C@@H](Cc1ccccc1)C(=O)N[C@@H](Cc1ccc(O)cc1)C(=O)N[C@@H](Cc1ccc(OP(=O)(O)O)cc1)C(=O)N[C@@H](Cc1c[nH]c2ccccc12)C(=O)N[C@@H](CC(=O)O)C(=O)N[C@@H](CCC(N)=O)C(=O)N[C@@H](CC(N)=O)C(=O)N[C@@H](CO)C(=O)N[C@@H](CO)C(=O)N[C@@H](CCC(=O)O)C(=O)N[C@@H](CCC(N)=O)C(=O)NCC(=O)O` [PAFSPAFDNLFY (pY) WDQNSSEQG] (HELM PEPTIDE1{P.A.F.S.P.A.F.D.N.L.F.Y.[O=C([C@H](Cc1ccc(OP(=O)(O)O)cc1)N[*:1])[*:2]].W.D.Q.N.S.S.E.Q.G}$$$$V2.0) had an IC50 of 0.5 to 5 µM.

For `CC(C)C[C@H](NC(=O)[C@H](CC(N)=O)NC(=O)[C@H](CC(=O)O)NC(=O)[C@H](Cc1ccccc1)NC(=O)[C@H](C)NC(=O)[C@@H]1CCCN1C(=O)[C@H](CO)NC(=O)[C@H](Cc1ccccc1)NC(=O)[C@H](C)NC(=O)[C@@H]1CCCN1)C(=O)N[C@@H](Cc1ccc(O)cc1)C(=O)N[C@@H](Cc1ccc(OP(=O)(O)O)cc1)C(=O)N[C@@H](C)C(=O)N[C@@H](CC(=O)O)C(=O)N[C@@H](CCC(N)=O)C(=O)N[C@@H](CC(N)=O)C(=O)N[C@@H](CO)C(=O)N[C@@H](CO)C(=O)N[C@@H](CCC(=O)O)C(=O)N[C@@H](CCC(N)=O)C(=O)NCC(=O)O` [PAFSPAFDNLY (pY) ADQNSSEQG] (HELM PEPTIDE1{P.A.F.S.P.A.F.D.N.L.Y.[O=C([C@H](Cc1ccc(OP(=O)(O)O)cc1)N[*:1])[*:2]].A.D.Q.N.S.S.E.Q.G}$$$$V2.0), the IC50 was over 50 µM.

Regarding `CC(C)C[C@H](NC(=O)[C@H](CC(N)=O)NC(=O)[C@H](CC(=O)O)NC(=O)[C@H](Cc1ccccc1)NC(=O)[C@H](C)NC(=O)[C@@H]1CCCN1C(=O)[C@H](CO)NC(=O)[C@H](Cc1ccccc1)NC(=O)[C@H](C)NC(=O)[C@@H]1CCCN1)C(=O)N[C@@H](Cc1ccc(O)cc1)C(=O)N[C@@H](Cc1ccc(OP(=O)(O)O)cc1)C(=O)N[C@@H](Cc1ccccc1)C(=O)N[C@@H](CC(=O)O)C(=O)N[C@@H](CCC(N)=O)C(=O)N[C@@H](CC(N)=O)C(=O)N[C@@H](CO)C(=O)N[C@@H](CO)C(=O)N[C@@H](CCC(=O)O)C(=O)N[C@@H](CCC(N)=O)C(=O)NCC(=O)O` [PAFSPAFDNLY (pY) FDQNSSEQG, PAFSPAFDNLY(pY)FDQNSSEQG] (HELM PEPTIDE1{P.A.F.S.P.A.F.D.N.L.Y.[O=C([C@H](Cc1ccc(OP(=O)(O)O)cc1)N[*:1])[*:2]].F.D.Q.N.S.S.E.Q.G}$$$$V2.0), the IC50 fell in the range of 0.5 to 5 µM.

As for `CC(C)C[C@H](NC(=O)[C@H](CC(N)=O)NC(=O)[C@H](CC(=O)O)NC(=O)[C@H](Cc1ccccc1)NC(=O)[C@H](C)NC(=O)[C@@H]1CCCN1C(=O)[C@H](CO)NC(=O)[C@H](Cc1ccccc1)NC(=O)[C@H](C)NC(=O)[C@@H]1CCCN1)C(=O)N[C@@H](Cc1ccc(O)cc1)C(=O)N[C@@H](Cc1ccc(OP(=O)(O)O)cc1)C(=O)N[C@@H](Cc1c[nH]c2ccccc12)C(=O)N[C@@H](C)C(=O)N[C@@H](CCC(N)=O)C(=O)N[C@@H](CC(N)=O)C(=O)N[C@@H](CO)C(=O)N[C@@H](CO)C(=O)N[C@@H](CCC(=O)O)C(=O)N[C@@H](CCC(N)=O)C(=O)NCC(=O)O` [PAFSPAFDNLY (pY) WAQNSSEQG, PAFSPAFDNLY(pY)WAQNSSEQG] (HELM PEPTIDE1{P.A.F.S.P.A.F.D.N.L.Y.[O=C([C@H](Cc1ccc(OP(=O)(O)O)cc1)N[*:1])[*:2]].W.A.Q.N.S.S.E.Q.G}$$$$V2.0), the IC50 is 0.05 to 0.5 µM.
